Assay results reported in US20250345351A1, “OLIGOSACCHARIDE COMPOSITIONS AND METHODS OF USE” (DSM NUTRITIONAL PRODUCTS, LLC, priority 2020, published 2025).

Legend:
[1] = tested on: fecal microbiome of healthy subjects; assay: Ex vivo fermentation in the presence of mesalamine: 16S rRNA amplicon sequencing, Bray-Curtis dissimilarity (Example 23); assay type: cell-based, human; conditions: all 5-ASA concentrations tested; replicate sequencing dissimilarity 0.06 (S.D. 0.03)
Method: (§1) 5-aminosalicilic acids (5-ASA), such as mesalamine, are standard-of-care compounds for the treatment of patients with mild-to-moderate ulcerative colitis. The ability of the selected oligosaccharide composition to support the growth of microbial taxa in the presence of mesaline was determined. Fecal samples from ten healthy subjects were incubated anaerobically in supplemented Clostridium minimal medium without (negative control) or with the selected oligosaccharide composition. Samples with the selected oligosaccharide composition were also incubated with 0.0, 0.5, 2, 8, 32, 125, or 500 μM mesalamine. Each fecal sample incubation was performed with three biological replicates. After incubation, samples were sedimented by centrifugation and culture supernatants were collected for SCFA quantification by GC-FID.
To understand if mesalamine influenced understand the shifts in taxonomic composition produced by incubation with the selected oligosaccharide composition, the fecal samples were characterized by 16S rRNA amplicon seuquencing. Genomic DNA was extracted from fecal samples using DNeasy PowerSoil extraction plates (Qiagen) and quantified using the Quant-iT PicoGreen dsDNA assay (Invitrogen). 16S rRNA libraries were prepared by PCR amplification with the 515F/806R primer set before sequencing on the Illumina NextSeq platform to at least 25 thousand reads. […]

[2] = tested on: fecal samples from ten healthy subjects; assay: Ex vivo fermentation of the selected oligosaccharide composition in the presence of mesalamine: SCFA by GC-FID (Example 23); assay type: cell-based, human; conditions: 0.5, 2, 8, 32, 125, or 500 μM mesalamine with the composition
Method: as §1, with “mesaline was” left out

## Nc1ccc(O)c(C(=O)O)c1 [mesalamine]
[1]
  mean Bray-Curtis dissimilarity to samples incubated with the composition and without mesalamine: 0.06 (S.D. 0.02)
[2]
  effect on SCFA production by the selected oligosaccharide composition: none of the samples incubated with mesalamine showed any significant differences in SCFA production
